From PubChem BioAssay AID274 (DTP/NCI, 2004)
Values joined by “and” are separate entries in the source; they are usually repeats but may differ in a detail not shown here. Identical values can stand only once. Inconclusive results and toxic doses are left out. Rule for the calls: active = survival T/C of 150% or more; inactive = T/C below 125% in these data.

Test system: BDF1 mice, Lewis lung carcinoma iv, survival T/C
Assay: NCI In Vivo Anticancer Drug Screen. Data for tumor model Lewis Lung Carcinoma (intravenous) in B6D2F1 (BDF1) mice
Conditions: endpoint: median survival time, schedule: Q01DX009 (ip), higher = longer survival
Method: The antitumor activity of compounds was measured in mice bearing transplantable tumors. Survival or tumor size were measured and the results are expressed as the measurement made in the treated group (T) divided by the measurement made in the vehicle treated control group (C). The tumor model used in this assay is Lewis Lung Carcinoma (intravenous) in B6D2F1 (BDF1) mice

Measured: T/C

CC/C(=C(/CC)c1ccc(O)cc1)c1ccc(O)cc1
inactive: dose: 12.5 mg/kg/injection, vehicle: water 123 % of control | dose: 25.0 mg/kg/injection, vehicle: water 102 % of control | dose: 50.0 mg/kg/injection, vehicle: water 102 % of control | dose: 100.0 mg/kg/injection, vehicle: water 106 % of control | dose: 200.0 mg/kg/injection, vehicle: water 120 % of control

COc1cc(C(C)(C)C)cc(OC)c1C(O)(c1c(OC)cc(C(C)(C)C)cc1OC)c1c(OC)cc(C(C)(C)C)cc1OC
inactive: dose: 6.25 mg/kg/injection, vehicle: saline with Tween-80 99 % of control and 106 % of control | dose: 12.5 mg/kg/injection, vehicle: saline with Tween-80 98 % of control and 99 % of control | dose: 25.0 mg/kg/injection, vehicle: saline with Tween-80 97 % of control and 102 % of control | dose: 50.0 mg/kg/injection, vehicle: saline with Tween-80 99 % of control
